The values below come from article PMC5618429, “Kempopeptin C, a Novel Marine-Derived Serine Protease Inhibitor Targeting Invasive Breast Cancer” (Marine Drugs, 2017).

The structures appear in SMILES notation.

Assay [1] addresses T1, 20S proteasome (trypsin-like activity) (Homo sapiens, UniProt Q99436).
T1 construct: purchased Enzo Life Sciences
Kind of assay: Proteasome Glo Trypsin-Like Activity Assay. Type of assay: biochemical. Conditions: 10 and 1 µM, in vitro. How it is done:
The inhibition of proteasomes was assessed using the Proteasome Glo Trypsin-Like Activity Assay from Promega according to the manufacturer’s instructions. Briefly, in white 96-well plates, kempopeptin C (3) (10 and 1 µM final concentration) was incubated at room temperature with 0.1 µg 20S proteasome (Enzo Life Sciences, Farmingdale, NY, USA) for 10 min to allow enzyme inhibitor interactions. Following the incubation period, the detection reagent containing Z-LRR-aminoluciferin substrate was added. The plate was gently mixed at 400 rpm for 30 s and then incubated at room temperature for 10 min. The luminescence signal was then measured using the EnVision plate reader (PerkinElmer, Waltham, MA, USA). Epoxomicin was used as a positive control.
Effect of kempopeptin C on the trypsin- like activity of
Kempopeptin C (10 µM) Kempopeptin C (1 µM) Epoxomicin (5 µM)
Figure S2. Effect of kempopeptin C (3) on the proteasome activity in vitro assessed using proteasome Glo trypsin- like
activity assay (Promega).

The subject of assay [2] is CDCP1 cleavage in MDA-MB-231 cells. Kind of assay: Cleavage of CDCP1 in MDA-MB-231 cells (Western blot). Type of assay: cell-based. How it is done:
The experiment was performed by treating MDA-MB-231 cells with different concentrations of either kempopeptin B (2) or C (3) for 72 h (Figure 6A). Dexamethasone (Dex) 100 nM was used as a positive control.
(§1) Figure 6 The effect of kempopeptins B and C (2 and 3) on CDCP1 cleavage in MDA-MB-231. (A) MDA-MB-231 cells were treated for 72 h with different concentrations of the test compounds. Following 72 h, the lysates were collected and analyzed by Western blot. (B) MDA-MB-231 cells were treated at different time points with 100 µM of kempopeptin C (3). Following 6 h, 12 h and 24 h, the lysates were collected and analyzed by Western blot. Dexamethasone (Dex) was used as a positive control. (C) MDA-MB-231 cells treated for 24 h with different concentrations of 3 in the presence of 10 nM recombinant human matriptase. Cell lysates were harvested and analyzed by Western blot. (D) Densitometric analysis of the full-length, LMW of CDCP1 and actin bands in (C).
MDA-MB-231 cells (150,000 cells/well) were seeded in 12-well plates. After 24 h, the media were replaced, and cells were treated with different concentrations of inhibitors (2 or 3; prepared in DMSO), the solvent control or the positive control dexamethasone. Whole-cell protein lysates were collected after 6, 12, 24 and 72 h using PhosphoSafe lysis buffer (Novagen, Madison, USA) and the protein concentration measured using the BCA Protein Assay kit (Pierce; 23227; Thermofisher Scientific; Waltham, MA, USA). Twenty micrograms of protein were separated by SDS-PAGE, transferred to polyvinylidene difluoride (PVDF) membranes, probed with CDCP1 antibody (Cell Signaling; 4115S) and detected with SuperSignal West Femto Maximum Sensitivity Substrate (Pierce).

For assay [3] the test system is unchanged. Put plainly: Cleavage of cellular CDCP1 in MDA-MB-231 supplemented with exogenous recombinant human matriptase. Type of assay: cell-based. Conditions: MDA-MB-231 + 10 nM recombinant human matriptase, 24 h, different concentrations. As to the method: as §1
In this experiment, we aimed to investigate the ability of 3 to inhibit cell-expressed CDCP1 rather than the purified recombinant protein in vitro. In contrast to the well-controlled in vitro assay, several factors might influence the extracellular matriptase activity in the cell-based assay; for example, the occurrence of additional secreted cellular factors, differences in pH, in addition to the unknown enzyme:substrate:inhibitor ratio. […] Additionally, matriptase is one of at least two other proteases known to process CDCP1, where plasmin is the main protease cleaving CDCP1 in MDA-MB-231 cells. […]

For assay [4], the target named is T2, trypsin from porcine pancreas (Sus scrofa, UniProt P00761).
T2 construct: purchased Sigma T0303; host or cells: porcine pancreas
Put plainly: Trypsin inhibition assay. The class given is biochemical. Conditions: mean ± SD, n = 3; 30-min preincubation; read-out: IC50 against trypsin. How it is done:
The trypsin inhibition assay was carried out at room temperature by incubating 10 µL of trypsin from porcine pancreas (T0303, Sigma, St. Louis, MO, USA) (100 µM prepared in assay buffer) with 39 µL of assay buffer (50 mM Tris-HCl, 100 mM NaCl, 1 mM CaCl2; pH 7.8) in the presence of 1 µL of different concentrations of inhibitors (2 and 3; half log dilutions prepared in DMSO) or the solvent control. After a 30-min incubation time, 50 µL of the 1.5 mM substrate: Nα-benzoyl-DL-arginine-4-nitroanilide (prepared as 2 mM stock solution in DMF and further diluted to 1.5 mM in assay buffer) were added to each well. The reaction was monitored by measuring the absorbance at 405 nm every 30 s for 30 min using SpectraMax M5 plate reader (Molecular Devices, Sunnyvale, CA, USA).

The target in assay [5] is T3, recombinant human matriptase (Homo sapiens, UniProt Q9Y5Y6).
T3 construct: purchased R&D Systems 3946-SE-010
T3 sequence (Q9Y5Y6 615-855 limits assumed): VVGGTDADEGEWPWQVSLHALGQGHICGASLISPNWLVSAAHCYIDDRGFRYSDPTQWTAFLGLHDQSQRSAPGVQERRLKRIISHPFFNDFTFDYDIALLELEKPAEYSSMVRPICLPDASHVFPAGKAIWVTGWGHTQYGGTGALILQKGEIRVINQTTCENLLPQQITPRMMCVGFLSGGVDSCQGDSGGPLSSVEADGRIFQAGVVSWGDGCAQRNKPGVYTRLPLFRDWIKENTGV
Kind of assay: Matriptase inhibition assay. Conditions: mean ± SD, n = 3; 15-min preincubation; read-out: IC50 against matriptase. The class given is biochemical. How it is done:
In matriptase inhibition assay, 50 µL of recombinant human matriptase (R&D Systems, Minneapolis, MN, USA; 3946-SE-010) ([…] prepared in assay buffer: 50 mM Tris, 50 mM NaCl, 0.01% Tween 20; pH 9.0) and 1 µL of different concentrations of inhibitors (2 and 3; half log dilutions prepared in DMSO) or the solvent control were pre-incubated at room temperature for 15 min. Following the incubation period, 50 µL of the 50 µM substrate solution (Boc-Gln-Ala-Arg-AMC) (R&D Systems, Minneapolis, MN, USA; ES014) were added to each well, and the enzyme activity was monitored by measuring the increase in fluorescence signal from the fluorescently-labeled substrate every 30 s for 30 min (Ex 380 nm, Em 460 nm) using the SpectraMax M5 plate reader (Molecular Devices).

T2 sequence (P00761 9-231): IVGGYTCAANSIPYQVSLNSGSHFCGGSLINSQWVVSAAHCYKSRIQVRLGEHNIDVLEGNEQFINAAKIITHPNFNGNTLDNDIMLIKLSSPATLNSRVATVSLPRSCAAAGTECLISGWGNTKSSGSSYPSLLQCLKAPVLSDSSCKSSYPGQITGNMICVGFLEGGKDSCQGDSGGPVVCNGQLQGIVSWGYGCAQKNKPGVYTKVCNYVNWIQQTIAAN

With `CCCC(=O)NC(C(=O)NC1C(=O)NC(CCCCN)C(=O)NC2CCC(O)N(C2=O)C(C(C)CC)C(=O)N(C)C(Cc2ccc(OC)c(Cl)c2)C(=O)NC(C(C)C)C(=O)OC1C)C(C)C` (stereo not shown) [Kempopeptin C, kempopeptin C], the “Effect on trypsin-like activity of proteasomes” value in assay [1] is reported as “did not inhibit the trypsin-like activity of proteasomes”. In addition, the “Inhibition of CDCP1 cleavage in MDA-MB-231” value is “no inhibition of CDCP1 cleavage was detected” in assay [2] (100 µM, 6, 12 and 24 h); “No inhibition of CDCP1 cleavage was observed” in assay [2] (72 h, different concentrations). For the same compound, the results for the “Reduction of cleavage of cellular CDCP1 in presence of exogenous matriptase” value in assay [3] and in assay [3] (listed as Kempopeptin C (3)) were “reduced the cleavage of CDCP1” and “slight dose-dependent reduction in the cleavage of the full-length form”, respectively. Besides, the IC50 was 190 ± 50 nM in assay [4] and 280 ± 30 nM in assay [5].

The IC50 is the midpoint of a concentration-inhibition curve.
